Columns and labels:
[1] = in vitro; conditions: human
[2] = physchem; conditions: octan-1-ol/water

Row | SMILES | microsomal CLint ([1]; liver microsomes) [µL/min/mg] | logD ([2]; pH 7.4, LogD7.4) | logD ([2]; pH 7.4) | microsomal CLint ([1]; microsomes) [µL/min/mg]
1 | Cc1ccccc1CCOCCCS(=O)(=O)CCNCCc1ccc(O)c2nc(O)sc12 | > 150 | – | – | –
2 | CCc1nc2c(N)nc3ccccc3c2n1Cc1ccccc1 | < 3 | 3.29 | – | –
3 | NS(=O)(=O)c1ccc(Nc2nccc(-c3ccccc3)n2)cc1 | < 3 | 2.86 | – | –
4 | CN1CCN(C(=O)c2cc3cc(Br)ccc3[nH]2)CC1 | 20.5 | 2.79 | – | –
5 | Cc1ccc(C(=O)Nc2ccon2)cc1NC(=O)c1cnn(-c2ccccc2F)c1N | < 3 | 2.6 | – | –
6 | Nc1nc(-c2ccccn2)nc(N)c1Cc1ccc(Cl)cc1Cl | 37.1 | – | – | –
7 | Cc1ccc2c(c1)C1(CCN(CCc3nc(-c4ccccc4)oc3C)CC1)OC(=O)N2 | 79.4 | – | 4.2 | –
8 | CC(NCC(O)c1ccc([N+](=O)[O-])cc1)C12CC3CC(CC(C3)C1)C2 (stereo not given) | 30.5 | 3.53 | – | –
9 | c1ccc(Sc2ccc3ccccc3n2)cc1 | – | 3.92 | – | 61
10 | O=C(O)COc1ccc(Cl)cc1CN1CCCN(S(=O)(=O)c2ccccc2)CC1 | – | – | – | < 3
11 | C[C@@H]1CN(Cc2cc(Cl)ccc2OCC(=O)O)C[C@H](C)N1C(=O)Cc1ccccc1 | – | – | – | < 3
12 | C[C@H]1CN(Cc2cc(Cl)ccc2OCC(=O)O)CCN1C(=O)Cc1cccc(Cl)c1 | – | – | 0.78 | < 3
13 | C[C@H]1CN(Cc2cc(Cl)ccc2CC(=O)O)CCN1S(=O)(=O)Cc1ccccc1 | – | – | – | < 3
14 | O=C(O)COc1ccc(C(F)(F)F)cc1-c1ccccc1-c1ccccc1 | – | – | – | < 3
15 | CCS(=O)(=O)c1ccc(-c2cc(C(F)(F)F)ccc2OCC(N)=O)c(C)c1 | < 3 | – | – | –
16 | C=CCN(C(=O)Cc1ccc(S(C)(=O)=O)cc1)C1CCN(CCC(c2ccccc2)c2ccccc2)CC1 | 10 | 3.1 | – | –
17 | CN(C(=O)Cc1ccc(S(N)(=O)=O)cc1)C1CCN(CCC(c2ccccc2)c2ccccc2)CC1 | 12 | – | – | –
18 | NC(=O)Nc1cc(-c2ccsc2)sc1C(N)=O | 45 | – | – | –
19 | Cc1ccc(NC(=O)c2cccc(N3CCOCC3)c2)cc1NC(=O)c1ccc(OCc2ccccn2)cc1 | 30.3 | – | – | –
20 | COc1ccc(C=NN=Cc2ccc(OC)c(OC)c2)cc1OC | 19 | 3.38 | – | –
21 | Cc1c(Sc2ccc(Cl)cc2)c2cc(Cl)ccc2n1CC(=O)O | < 3 | 2.87 | – | –
22 | Cc1c(Sc2ccc(Cl)cc2)c2cc(Cl)ccc2n1C(C)C(=O)O (stereo not given) | – | 3.56 | – | < 3

Row | SMILES | microsomal CLint ([1]; liver microsomes) [µL/min/mg] | logD ([2]; pH 7.4, LogD7.4) | logD ([2]; pH 7.4) | microsomal CLint ([1]; microsomes) [µL/min/mg]
23 | Cc1c(Sc2ccc(Cl)cc2)c2ccc(Cl)cc2n1CC(=O)O | < 3 | – | – | –
24 | Cc1c(Sc2ccc(Cl)cc2)c2c(C#N)c(Cl)ccc2n1CC(=O)O | 4 | – | – | –
25 | CC(=O)Nc1ccc2c(c1)c(Sc1ccc(Cl)cc1)c(C)n2CC(=O)O | 36 | – | – | –
26 | Cc1c(Sc2ccc(Cl)cc2)c2cc(-c3ccccc3)ccc2n1CC(=O)O | 16 | – | – | –
27 | Cc1ccc2c(c1)c(Sc1ccccc1Cl)c(C)n2CC(=O)O | – | – | – | < 3
28 | Cc1c(Oc2ccc(Cl)cc2)c2cc(F)ccc2n1CC(=O)O | – | – | – | < 3
29 | CCS(=O)(=O)Nc1cccc2c1c(Oc1ccc(Cl)cc1)c(C)n2CC(=O)O | – | – | – | < 3
30 | N#Cc1ccc(Nc2nccc(NC3CC3)n2)cc1 | 45 | 3.01 | – | –
31 | O=C(CCc1ccccc1O)Nc1ccccc1 | 30 | 2.71 | – | –
32 | Nc1nc(Nc2cccc(Br)c2)c2[nH]cnc2n1 | – | 3.04 | – | 16
33 | Nc1nc(Nc2ccc(F)c(Cl)c2)c2nc[nH]c2n1 | 15 | 2.75 | – | –
34 | CCN(C(=O)Cc1ccc(S(C)(=O)=O)cc1)C1CCN(CCC(c2ccccc2)C2CCN(Cc3ccccc3)CC2)CC1 (stereo not given) | > 150 | – | – | –
35 | CCN(C(=O)Cc1ccc(S(C)(=O)=O)cc1)C1CCN(CC[C@@H](c2cc(C)cc(C)c2)C2CCN(S(C)(=O)=O)CC2)CC1 | > 150 | – | – | –
36 | COc1ccc(-c2ccnc(N)n2)cc1 | 41 | 2.08 | – | –
37 | Cc1ccc(C(=O)NC2CCC2)cc1-n1cnc2ccc(N3CCN(C)CC3)cc2c1=O | 5 | 2.25 | – | –
38 | Nc1c(C(=O)c2cccc(OC[C@H](O)CO)c2)cnn1-c1ccc(F)cc1 | – | 1.94 | – | < 3
39 | O=C(Nc1ccc(S(=O)(=O)N2CCOCC2)cc1)c1cc(Cl)ccc1NS(=O)(=O)c1ccc(Cl)s1 | < 3 | 3.02 | – | –
40 | Cc1c(OC2CCN(CC3CCN([C@@H](Cc4ccc(F)cc4)C(=O)O)CC3)CC2)ccc(C#N)c1Cl | – | – | – | 5.5
41 | O=C(O)C(c1ccccc1)N1CCCC(CN2CCC(Oc3ccc(Cl)c(Cl)c3)CC2)C1 (stereo not given) | < 3 | 2.6 | – | –
42 | O=C(O)[C@@H](c1ccccc1)N1CCC(CN2CCC(Oc3ccc(Cl)c(Cl)c3)CC2)CC1 | – | 2.14 | – | < 3
43 | O=C(O)c1cccnc1N1CCC(CN2CCC(Oc3ccc(Cl)c(Cl)c3)CC2)CC1 | – | – | – | 4
44 | O=C(O)[C@H](Cc1ccc(Cl)cc1)N1CCC(CN2CCC(Oc3ccc(Cl)c(Cl)c3)CC2)CC1 | < 3 | – | – | –

Row | SMILES | microsomal CLint ([1]; liver microsomes) [µL/min/mg] | logD ([2]; pH 7.4, LogD7.4) | logD ([2]; pH 7.4) | microsomal CLint ([1]; microsomes) [µL/min/mg]
45 | COc1ccc(C(=O)NCCN2CCN(Cc3ccc(Cl)c(Cl)c3)CC2)cc1Cl | – | 3.74 | – | 50.5
46 | O=C(NS(=O)(=O)c1cccc(Cl)c1)N1CCC(N2CCC(Oc3ccc(Cl)c(Cl)c3)CC2)CC1 | 6 | 2.62 | – | –
47 | O=C(NS(=O)(=O)Cc1ccccc1)N1CCC(N2CCC(Oc3ccc(Cl)c(Cl)c3)CC2)CC1 | < 3 | 2.13 | – | –
48 | Cc1cc(Cl)ccc1OC1CCN(C[C@H](O)CNC(=O)c2c[nH]nc2C(F)(F)F)CC1 | – | 3.02 | – | < 3
49 | Cc1c(Cl)ccc(OC2CCN(C[C@H](O)CNC(=O)c3c[nH]nc3C(F)(F)F)CC2)c1Cl | < 3 | 3.66 | – | –
50 | O=C(NC[C@@H](O)CN1CCC(Oc2ccc(Cl)c(Cl)c2)CC1)c1n[nH]c2ccccc12 | < 3 | 2.95 | – | –
51 | O=C(NC[C@@H](O)CN1CCC(Oc2ccc(Cl)c(Cl)c2)CC1)c1c[nH]c2ccccc12 | – | 3.91 | – | < 3
52 | O=C(NC[C@@H](O)CN1CCC(Oc2ccc(Cl)c(Cl)c2)CC1)c1n[nH]c(=O)c2ccccc12 | 3 | 3.69 | – | –
53 | O=C(NC[C@@H](O)CN1CCC(Oc2ccc(Cl)c(Cl)c2)CC1)c1cnnc2ccccc12 | 8 | 3.28 | – | –
54 | CC(=O)Nc1ccc(O)cc1OC[C@@H](O)CN1CCC2(CC1)Cc1cc(Cl)ccc1O2 | 8 | – | – | –
55 | CC(=O)Nc1ccc(O)cc1OC[C@@H](O)CN1CCC2(CC1)Cc1cc(F)ccc1O2 | – | 2.1 | – | < 3
56 | COCCNCc1ccc(Nc2ncc3cc(-c4ccncc4)ccc3n2)cc1 | 42.7 | 1.86 | – | –
57 | Nc1nccc(-n2ccc3ccccc32)n1 | 112 | 2.71 | – | –
58 | c1cn(-c2ccc(Oc3nccc(Oc4ccc5c(c4)OCO5)n3)cc2)cn1 | – | 3.27 | – | 13
59 | Cc1cnc(Oc2ccc(-n3ccnc3)cc2)nc1Oc1ccc2c(c1)OCO2 | < 3 | 3.56 | – | –
60 | C[C@H](CO)Nc1nc(SCc2ccccc2)nc2[nH]c(=O)[nH]c12 | < 3 | 2.75 | – | –
61 | C[C@H](CO)Nc1nc(SCc2cccc(F)c2F)nc2[nH]c(=O)ccc12 | 9 | 3.36 | – | –
62 | N=C(N)c1cc2c(/C=C/c3ccc4c(c3)OCO4)cccc2s1 | 7 | – | – | –
63 | CSc1nc(-c2ccccc2)nn1Cc1ccccc1 | – | 3.83 | – | 116
64 | COc1cccc(NC(=O)CC23CC4CC(CC(C4)C2)C3)c1C | > 150 | – | – | –
65 | CCO/N=C(\c1ccc(Br)cc1)C1CCN(C2(C)CCN(C(=O)c3c(Cl)cncc3Cl)CC2)CC1 | 4 | 4 | – | –
66 | CCCN1CCC(Oc2nccc(Nc3cc(NC(=O)c4cccc(N5CCOCC5)c4)ccc3C)n2)CC1 | 54 | 2.6 | – | –

Row | SMILES | microsomal CLint ([1]; liver microsomes) [µL/min/mg] | logD ([2]; pH 7.4, LogD7.4) | logD ([2]; pH 7.4) | microsomal CLint ([1]; microsomes) [µL/min/mg]
67 | CCN(C(=O)Cc1ccc(S(C)(=O)=O)cc1)C1CCN(CCC(c2ccccc2)c2ccccc2)CC1 | 16 | 3 | – | –
68 | Nc1nc2nc(SCc3cccc(F)c3F)[nH]c(=O)c2s1 | < 3 | 2.5 | – | –
69 | Nc1nc(NCc2ccccc2)nc2c1nc(O)n2Cc1ccccc1 | – | 3.69 | – | 11
70 | Cc1cc(Oc2ccc3c(c2)OCO3)nc(Oc2ccc(-n3ccnc3)cc2)n1 | < 3 | 3.47 | – | –
71 | CC[C@H](CO)Nc1nc(SCc2cccc(F)c2F)nc2nc(NC(C)C)sc12 | 42 | – | – | –
72 | NC(=O)Nc1sc(-c2ccccc2)cc1C(N)=O | – | 2.42 | – | 21
73 | COc1ccc(C)c(NC(=O)CC23CC4CC(CC(C4)C2)C3)c1 | > 150 | 3.96 | – | –
74 | NC(=O)c1sc(-c2ccc(Cl)cc2)cc1N | 31 | – | – | –
75 | CC(=O)c1ccc(N2CCN(S(=O)(=O)C[C@]34CC[C@H](CC3=O)C4(C)C)CC2)nc1 | > 150 | 2.21 | – | –
76 | COc1ccc(N(C(=O)c2occc2Cl)C(C(=O)NC[C@@H](C)O)c2ccccc2F)c(OC)c1 (stereo not given in full) | – | – | – | 145
77 | CC1(C)[C@@H]2CC[C@@]1(CS(=O)(=O)NC1CCN(c3ccc(C(F)(F)F)cn3)CC1)C(=O)C2 | 75 | 3.84 | – | –
78 | O=C(CC12CC3CC(CC(C3)C1)C2)Nc1c(Cl)ccc2nc(CN3CCN(CCO)CC3)ccc12 | 79.5 | 2.93 | – | –
79 | CC1CCC(CC(=O)Nc2cccc3ncccc23)CC1 (stereo not given) | 38 | 3.56 | – | –
80 | O=C(CC1CCCCC1)Nc1c(Cl)ccc2nc(NCCCO)ccc12 | – | 3.29 | – | 25
81 | O=C(O)c1cccc(-c2ccc3c(C(=O)NCC45CC6CC(CC(C6)C4)C5)c(Cl)ccc3n2)c1 | 33 | 2.84 | – | –
82 | CCCCC(CC)CNC(=O)c1cc(-n2ncc(=O)[nH]c2=O)ccc1Cl (stereo not given) | 24 | 2.41 | – | –
83 | Cc1ccc2c(N)c(C(N)=O)sc2n1 | 13 | – | – | –
84 | N=C(N)c1cc2c(OCc3ccccc3)cccc2s1 | 11 | – | – | –
85 | CCN(CC)Cc1cc(Nc2ccnc3cc(Cl)ccc23)ccc1O [AMODIAQUINE] | – | – | – | > 150
86 | CC(C(=O)O)c1ccc(-c2ccccc2)c(F)c1 (stereo not given) [FLURBIPROFEN] | 23.5 | – | – | –

— ChEMBL document CHEMBL3301361, “Experimental in vitro DMPK and physicochemical data on a set of publicly disclosed compounds”
